Results taken from patent publication US20060141076A1, “Morinda citrifolia based compositions and methods for inhibiting xanthine oxidase” (priority 2004, published 2006).

Biological target: T1, Xanthine Oxidase (Bos taurus, UniProt P80457)
T1 construct: Xanthine Oxidase was obtained from Bovine butter milk; from tissue; host or cells: bovine buttermilk
Assay: Xanthine oxidase inhibition assay (uric acid quantitated by spectrophotometer, 165 μM xanthine substrate)
Format: biochemical, Bovine
Details: Allopurinol comparison; concentration not given
Description: All other results are expressed in terms of that assay's quantitation method. For primary assays, only the lowest concentration with a significant response judged by the assays' criteria, is shown in this summary.
Methods employed in this study were adapted from the scientific literature to maximize reliability and reproducibility.

T1 sequence (P80457 whole entry): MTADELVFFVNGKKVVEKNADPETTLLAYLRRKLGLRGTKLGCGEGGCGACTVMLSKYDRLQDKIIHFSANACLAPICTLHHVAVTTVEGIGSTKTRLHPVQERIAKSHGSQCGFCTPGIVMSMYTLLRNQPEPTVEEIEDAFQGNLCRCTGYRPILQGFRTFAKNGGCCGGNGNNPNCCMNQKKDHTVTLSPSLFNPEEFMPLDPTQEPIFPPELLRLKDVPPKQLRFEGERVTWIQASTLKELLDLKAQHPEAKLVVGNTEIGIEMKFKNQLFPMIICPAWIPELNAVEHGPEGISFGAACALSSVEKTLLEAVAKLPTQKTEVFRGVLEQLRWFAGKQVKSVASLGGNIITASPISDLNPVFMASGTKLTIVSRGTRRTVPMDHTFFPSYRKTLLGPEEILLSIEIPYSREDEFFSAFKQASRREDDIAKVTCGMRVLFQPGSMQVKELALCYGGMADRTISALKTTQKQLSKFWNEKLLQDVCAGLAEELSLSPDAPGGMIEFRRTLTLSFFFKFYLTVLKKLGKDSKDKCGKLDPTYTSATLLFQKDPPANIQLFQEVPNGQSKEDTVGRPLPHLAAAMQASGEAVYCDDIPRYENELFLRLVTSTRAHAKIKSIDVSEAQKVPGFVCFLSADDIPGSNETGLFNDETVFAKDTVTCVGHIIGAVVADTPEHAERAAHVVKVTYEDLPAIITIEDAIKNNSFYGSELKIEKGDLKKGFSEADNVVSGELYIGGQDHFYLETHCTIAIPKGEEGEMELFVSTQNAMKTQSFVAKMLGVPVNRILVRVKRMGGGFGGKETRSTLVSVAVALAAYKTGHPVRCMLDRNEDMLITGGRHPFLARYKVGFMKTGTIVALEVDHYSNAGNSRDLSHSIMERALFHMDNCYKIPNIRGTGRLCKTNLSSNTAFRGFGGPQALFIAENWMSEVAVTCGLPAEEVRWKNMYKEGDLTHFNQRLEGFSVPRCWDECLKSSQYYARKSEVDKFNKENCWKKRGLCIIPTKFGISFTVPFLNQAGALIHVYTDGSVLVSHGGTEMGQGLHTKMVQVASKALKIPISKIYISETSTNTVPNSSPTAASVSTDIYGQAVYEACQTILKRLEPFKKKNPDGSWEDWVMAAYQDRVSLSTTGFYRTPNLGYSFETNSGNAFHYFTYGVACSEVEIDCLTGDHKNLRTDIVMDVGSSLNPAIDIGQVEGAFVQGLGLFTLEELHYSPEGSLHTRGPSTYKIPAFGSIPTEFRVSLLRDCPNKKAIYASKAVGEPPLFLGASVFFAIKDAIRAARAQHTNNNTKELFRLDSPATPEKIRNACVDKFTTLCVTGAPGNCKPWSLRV

Oc1ncnc2[nH]ncc12 [Allopurinol]
percent inhibition of xanthine oxidase: approximately 90%
